Measured values taken from patent publication US20210030703A1, “USE OF CALORIC RESTRICTION MIMETICS FOR POTENTIATING CHEMO-IMMUNOTHERAPY FOR THE TREATMENT OF CANCERS” (INSERM (INSTITUT NATIONAL DE LA SANTÉ ET DE LA RECHERCHE …, priority 2018, published 2021).

Columns and labels:
mammary carcinomas = assay: Hormone-induced (MPA/DMBA) orthotopic mammary tumor model; type: in vivo, BALB/c mice; settings: combination of MTX-based chemotherapy and HC, versus MTX and HC alone; data not shown
Description: Breast cancers were induced in young (7-weeks-old) female BALB/c mice by implantation of medroxyprogesterone acetate (MPA)-releasing pellets followed by gavage with the DNA damaging agent 7,12-Dimethylbenz[a]anthracene (DMBA) for the following 6 weeks. Note that the interval between the last DMBA injection and the manifestation of palpable breast cancer lesions is rather variable. When palpable tumors appeared, mice were randomized into the different experimental groups and treated with intraperitoneal injections of hydroxycitrate (100 mg/kg) at d-1 and d0 and/or intraperitoneal injections of 5.17 mg/kg of Mitoxantrone. Neutralizing anti-CD11b antibodies (clone M1/70, ref BE0007 from BioXCell™) or their isotype control (clone LTF-2, ref BE0090 from BioXCell™) were then injected at d-1, d0 and d7. Tumor growth was followed by calculating tumor surface (mm^2) with the formula length×width.

whole MCA205 tumors = assay: RNA-seq analyses of whole tumors; type: in vivo, C57B1/6 mice; settings: day 3 post-chemotherapy (MTX); data not shown

O=C(O)CC(O)(C(=O)O)C(O)C(=O)O (centres unmarked) [HC, hydroxycitrate]
Reduction of tumor growth and prolongation of mouse survival (mammary carcinomas): highly efficient in reducing tumor growth and prolonging mouse survival
Evidence of local immunostimulation (whole MCA205 tumors): failed to yield convincing evidence
